Assay results from patent US20110236393A1, “MONOCLONAL ANTIBODY PRODUCTION IN B CELLS AND USES THEROF” (Duke University, priority 2008, published 2011).

Experiments:
[1] = test system: PBMC infected with EBV (B95-8); assay: EBV transformation efficiency (EBV-induced LCL outgrowth following PBMC infection); format: cell-based, human; details: for increase of EBV-mediated transformation efficiency: relative to DMSO (set to 1), LCL positive wells at six weeks post infection
Experimental: FIGS. 3A and 3B are graphical plots showing the inhibition of ATM and Chk2 kinases increased EBV transformation efficiency. […] The percentages of wells positive for LCLs at six weeks post infection were plotted relative to the amount of B95-8 virus used per well. The efficiency of transformation was determined by the amount of virus necessary to induce 63% positive wells as indicated by a Poisson's distribution. This value was set to 1 for the DMSO treated infections. The difference between DMSO and 5 μM ATMi treated infections was ˜30-fold increased efficiency in the presence of 5 μM ATMi. In FIG. 3B similar experiments were performed using DMSO (diamond), 2 μM Chk2i II (square), or 5 μM Chk2i II (triangle).
Methods of infecting B cells with EBV are known to those of skill in the art. In some embodiments B cells can be infected with EBV as disclosed in the Examples below. In some embodiments primary human peripheral blood mononuclear cells (PBMCs) can be infected with the EBV strain B95-8 with dilutions starting from a multiplicity of infection such that all B cells express the EBV latent gene expression program (approximately 100 particles/cell) through a dilution where no LCLs grow out. Culturing of the EBV-infected cells in RPMI 1640, 10% FCS, antibiotics, and in the presence of cyclosporine to suppress T cell activity, allows for the outgrowth of LCLs at approximately 1-5% efficiency (transformant/infected cell) within 5 weeks. Scoring of LCL outgrowth can be performed using techniques and analytical equipment as is know to those of skill in the art. By way of example and not limitation, scoring of LCL outgrowth can be performed using a Cellomics Vti Array Scan instrument (ThermoFisher Scientific, Waltham, Mass., United States of America) following Calcein-AM live cell fluorescent staining, which allows for an unbiased readout of LCL outgrowth. […]
Likewise, the downstream ATM target, Chk2, was evaluated for its ability to inhibition EBV-mediated proliferation of B cells. […]

[2] = test system: CD19+ B cells of CFSE-stained PBMC; assay: CFSE/CD19 B cell proliferation after EBV infection of PBMC; format: cell-based, human; details: for B cell proliferation in the absence of EBV: 5 μM, no EBV, six days post treatment; for B-cell proliferation (CD19+/CFSElo cells of total PBMCs): EBV infection in presence of 1, 2, 5, 10 μM inhibitor, 14 days post infection
Text: FIGS. 4A, 4B and 4C show inhibition of ATM or Chk2 increased the proliferation of B cells following EBV infection. FIG. 4A is a dot plot of EBV-mediated proliferation following infection of CFSE-stained PBMC, detected by FACS using CD19-PE staining of B cells and CFSE to monitor cell divisions, at 2 and 6 days post infection. At day 2 post infection there was little proliferation, while by day 6 there was clear B cell proliferation induced by the virus. FIG. 4B is a histogram illustrating the effect of CFSE-stained PBMC infected with EBV in the presence of increasing amounts of ATMi or Chk2i (0.1% DMSO, 1 μM, 2 μM, 5 μM, and 10 μM). The percentage of CD19+/CFSElo cells of total PBMCs at 14 days post infection are plotted. The data shown are the average values from two different normal donors with error bars reflecting the standard error. […] FIG. 4C includes dot plots of the proliferation of CFSE-stained PBMC treated with DMSO, 5 μM ATMi, 5 μM Chk21, or infected with EBV. Six days post treatment/infection cells were stained with CD19-PE antibody and proliferation of B cells was assessed. […] The difference in relative B cell proliferation at day six between FIGS. 4A and 4C was due to normal donor variation.
To further characterize the ATM- and Chk2-dependent block to EBV-mediated transformation, B cell proliferation early after infection was analyzed. PBMC were infected and B cell proliferation was followed over time using the fluorescent dye CFSE and CD19 staining of B cells. CFSE staining assays proliferation as its fluorescence is halved in daughter cells. PBMC were stained with the cell permeable dye carboxyfluorescein succinimidyl ester (CFSE). This dye enters the cytoplasm and is cleaved to fluoresce immediately by intracellular esterases. The dye is maintained in cells at a concentration that divides by half with each cell division. Thus, each two-fold reduction of CFSE fluorescence readout by flow cytometry correlates with one cycle of proliferation. CFSE-labeled PBMC were infected with EBV and B cell proliferation was monitored by CD19-PE or APC labeling cells at different days after infection. Flow cytometry was used to analyze the CD19 and CFSE levels in gated live cells (by forward versus side scatter). The percentage of CD19+ cells that have proliferated (CFSElo) relative to total PBMC cell numbers were plotted to indicate a relative proliferation index in panel B of FIG. 4. Using the CD19 marker and CFSE the proliferation of B cells during the early stages of transformation were specifically followed (FIG. 4A).
The above experiments were followed with washout and time of addition experiments using either ATM or Chk2 inhibitor. EBV-infected B cells were determined to be sensitive to the inhibitors between 4 and 8 days after infection. […]

[3] = test system: IgG+ memory B cells infected with EBV B95-8; assay: Outgrowth of EBV-infected IgG+ memory B cells (positive wells at 4 weeks); format: cell-based, human; details: EBV B95-8 MOI 5, CpG 2.5 μg/mL, Chk2i 5 μM, 1,000 and 300 cells per well
Text: This Example pertains to the evaluation of whether inhibition of the DDR, in particular Chk2, is capable of increasing the efficiency of EBV transformation of memory B cells and whether the frequency of antibody secreting cells will increase. As a positive control, CpG 2006 TLR9 agonist was included either alone or together with Chk21. The CpG employed was CpG 2006 (Hartmann and Krieg, The Journal of Immunology, 2000, 164: 944-952.). The Chk2i employed was Chk2i II (Arienti et al., 2005 J. Med Chem 48:1873-1875).
Normal donor peripheral blood mononuclear cells (PBMC) were sorted to >95% pure IgG+ memory B cells using a scheme of positive selection for CD19 and CD27 and negative selection of IgM, IgD, and IgA. Cells were then infected with EBV B95-8 strain at an MOI of 5 and either DMSO, CpG (2.5 μg/mL), Chk2i (5 μM), or CpG +Chk21. Cells were seeded in 96-well plates with 50,000 lethally irradiated J774A.1 cells at different amounts. […] Wells were analyzed at 4 weeks for outgrowth and positive wells are plotted as a percentage for each condition. […] These were measured by IgG-specific ELISA.

CD19+ B cells = assay: B cell number after mitogen stimulation (flow cytometry count); format: cell-based, human; details: 5 μM Chk2i II vs DMSO, different time points
Experimental: FIG. 11 is bar graph showing that Chk2 […] the total B cell number following CpG treatment or EBV infection. PBMC were stimulated with CpG 2006 (2.5 μg/mL) or infected with EBV (B95-8, MOI 5). CD19+ B cells were assayed 7 days after treatment of infection using flow cytometry. The total number of viable CD19+ B cells is plotted.
FIG. 12 is a histogram showing that Chk2 inhibition increased B cell number following CpG or CpG system stimulation. Cells were assayed at different time points after stimulation. Circles are CpG treated samples and squares are CpG system treated samples. Open symbols are DMSO-treated and closed symbols are Chk21-treated.
Inhibition of the DDR increased B Cell proliferation in response to mitogens This Example pertains to inhibition of the DDR signaling pathway as a means to increase B cell mitogen induced proliferation. In FIG. 11 inhibition of Chk2 increased the number of B cells proliferating following either CpG DNA treatment or EBV infection as B cell mitogens. […] Total B cell number refers to CD19+ cells gated for viability using forward and side scatter and normalized to polystyrene beads.
The proliferation of cells in response to a combination of mitogenic signals was also assayed in the presence of a DNA damage response inhibitor. […] Cells were counted at different time points using the assay described in Example 10. […]

[4] = test system: memory B cells from chronic HIV-1-infected patients; assay: Frequency of IgG positive cell clones of EBV transformed memory B cells; format: cell-based, human; details: EBV transformation in presence vs absence of Chk2i II
Text: FIG. 13 is a scatter plot of the frequency of IgG positive cell clones of EBV transformed memory B cells from chronic HIV-1-infected patients in the presence or absence of Chk2i II. An increase in the frequency of IgG positive cell clones in the presence of Chk2i II was observed.
Identification of a HIV-Specific Neutralizing Antibody Following EBV Transformation of Memory B Cells from a Patient Chronically Infected with HIV in the Presence of an Inhibitor of the DNA Damage Response Using the methods of the presently disclosed subject matter, memory B cells from a chronic HIV-1-infected patient were EBV transformed. An increase in the frequency of IgG positive cell clones in the presence of Chk2i II was observed (FIG. 13). It was then determined whether these antibodies would specifically recognize HIV glycoproteins and whether they had biological (e.g. neutralizing) activity. Several potentially HIV-1 neutralizing antibodies were identified during initial screening of the cell culture supernatants. One of these was cloned into a hetero-hybridoma cell line and the IgG mAb was purified (SMB2-2). The mAb bound to HIV-1 gp120 and gp140 proteins (FIG. 14) and captured HIV-1 virions (FIG. 15) and neutralized infection of HIV-1 strains SF162 and MN in vitro (FIG. 16). In preliminary experiments, SMB2-2 neutralized infection of HIV-1 strains SF162 and MN in vitro with an IC50˜10 μg/mL. […]

[5] = test system: Chk1 and over 30 other serine/threonine kinases; details: Arienti et al., 2005; cited from earlier work

| SMILES | increase of EBV-mediated transformation efficiency ([1]; 2 μM inhibitor) | increase of EBV-mediated transformation efficiency ([1]; 5 μM inhibitor) [fold] | B cell proliferation in the absence of EBV [2] | B-cell proliferation (CD19+/CFSElo cells of total PBMCs) [2] | EBV transformation efficiency (in words) ([1]; 2 μM and 5 μM vs DMSO) | outgrowth of memory B cells (positive wells) [3] | B cell number following CpG stimulation (CD19+ B cells) | B cell number following CpG system stimulation (CD19+ B cells; CpG DNA, anti-Ig, IL-2, IL-10) | frequency of IgG positive cell clones [4] | specificity over Chk1 and over 30 other serine/threonine kinases [5] |
| --- | --- | --- | --- | --- | --- | --- | --- | --- | --- | --- |
| O=c1cc(-c2cccc3c2Sc2ccccc2S3)oc(N2CCOCC2)c1 [ATMi] | approximately 3 fold | ~30 | No effect | dose dependent increase |  |  |  |  |  |  |
| CC(=O)c1ccc2c(c1)C=C(c1ccc(Oc3ccc(Cl)cc3)cc1)C2 [Chk2i II] |  |  | No effect | dose dependent increase | dramatic and dose-dependent increase | increased the ability of B cells to grow out | increased | increased | increase | exquisite specificity |
